Patent US20120214862A1, “MODULATION OF FACTOR 7 EXPRESSION” (ISIS Pharmaceuticals, Inc., priority 2009, published 2012)
In the oligonucleotide strings, read from the 5' end, every base follows the letter of its sugar. An asterisk marks phosphorothioate; unmarked linkages are phosphodiester. Other units and linkages are bracketed, terminal groups are in braces. A string of capitals states the bases alone. e = 2'-O-(2-methoxyethyl) (MOE); [5mC] = 5-methylcytosine; d = 2'-deoxy (DNA)

System: human Factor 7 mRNA
Assay: Antisense inhibition of human Factor 7 mRNA in HepB3 cells, lipofectin, 50 nM, real-time RT-PCR
Type: cell-based
Conditions: Example 1; HepB3 cells, lipofectin, 50 nM, ~24 h, relative to untreated control cells
Method in brief: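 Percent inhibition of Factor 7 mRNA, relative to untreated control, comes from real-time RT-PCR with RIBOGREEN normalization, using primer probe set RTS 2927 in some runs. RNA was taken roughly 24 h after lipofectin delivery of 50 nM oligonucleotide into HepB3 cells.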

Substance	% Inhibition (human Factor 7 mRNA)
407630 (antisense e[5mC]*eA*e[5mC]*eA*eT*dG*dG*dT*d[5mC]*dA*dG*dT*dG*dA*dG*eG*eA*e[5mC]*e[5mC]*eA) [compound 407630]	29%
407604 (antisense e[5mC]*eA*e[5mC]*eA*e[5mC]*dT*dG*dG*dT*d[5mC]*d[5mC]*d[5mC]*d[5mC]*dA*dT*e[5mC]*eA*e[5mC]*eT*eG) [compound 407604]	34%
407597 (antisense eT*eG*eT*eT*eG*dA*d[5mC]*dA*dT*dT*d[5mC]*d[5mC]*d[5mC]*d[5mC]*dA*eT*eG*eG*eG*eA) [compound 407597]	39%
407954 (antisense e[5mC]*eA*eG*eG*eG*dA*dG*dA*dG*dA*dA*d[5mC]*dA*dT*d[5mC]*e[5mC]*eA*eA*eT*eT) [compound 407954]	39%
407669 (antisense eT*eA*eG*eA*e[5mC]*d[5mC]*d[5mC]*dT*d[5mC]*dA*dG*dT*dG*dA*dG*eT*eG*eT*e[5mC]*eG) [compound 407669]	57%
407944 (antisense e[5mC]*e[5mC]*eA*eG*eT*dG*dG*dG*dT*dG*dG*d[5mC]*dA*dG*dG*e[5mC]*eA*e[5mC]*e[5mC]*eA) [compound 407944]	59%
407909 (antisense e[5mC]*e[5mC]*eA*eT*e[5mC]*d[5mC]*dG*dA*dG*dT*dA*dG*d[5mC]*d[5mC]*dG*eG*e[5mC]*eA*e[5mC]*eA) [compound 407909]	77%

Same assay, conditions: Example 4; HepB3 cells, lipofectin, 50 nM, ~24 h, relative to untreated control

Substance	% Inhibition (human Factor 7 mRNA)
422124 (antisense eT*eG*eA*eG*e[5mC]*dG*d[5mC]*dG*dG*dA*dA*dG*dA*dA*dG*eG*eG*eA*e[5mC]*eG) [compound 422124]	0%
422125 (antisense e[5mC]*eT*eG*eA*eG*d[5mC]*dG*d[5mC]*dG*dG*dA*dA*dG*dA*dA*eG*eG*eG*eA*e[5mC]) [compound 422125]	8%
422128 (antisense eT*eT*eA*e[5mC]*eT*dG*dA*dG*d[5mC]*dG*d[5mC]*dG*dG*dA*dA*eG*eA*eA*eG*eG) [compound 422128]	27%
422265 (antisense eG*e[5mC]*dG*dG*dA*dA*dG*dA*dA*dG*dG*dG*dA*d[5mC]*dG*eG*eA*eA*eG*eG) [compound 422265]	34%
422188 (antisense eG*e[5mC]*eG*dG*dA*dA*dG*dA*dA*dG*dG*dG*dA*d[5mC]*dG*dG*dA*eA*eG*eG) [compound 422188]	37%
422270 (antisense eT*eG*dA*dG*d[5mC]*dG*d[5mC]*dG*dG*dA*dA*dG*dA*dA*dG*eG*eG*eA*e[5mC]*eG) [compound 422270]	15%

Same assay, conditions: Example 6 microwalk, nucleobases 15098 to 15122 of SEQ ID NO: 1; HepB3, lipofectin, 50 nM, ~24 h

Substance	% Inhibition (human Factor 7 mRNA)
422136 (antisense e[5mC]*eA*eG*e[5mC]*eA*d[5mC]*dA*d[5mC]*dA*dT*dG*dG*dA*dG*dT*e[5mC]*eA*eG*e[5mC]*eA) [compound 422136]	57%
422287 (antisense e[5mC]*eA*dG*d[5mC]*dA*d[5mC]*dA*d[5mC]*dA*dT*dG*dG*dA*dG*dT*e[5mC]*eA*eG*e[5mC]*eA) [compound 422287]	41%

Same assay, conditions: HepB3 cells, lipofectin, 50 nM antisense oligonucleotide, approximately 24 hours, primer probe set RTS 2927, relative to untreated control

Substance	% Inhibition of human Factor 7 mRNA levels
416552 (antisense eT*e[5mC]*eT*eG*e[5mC]*dA*d[5mC]*dA*dG*dG*dG*dT*dA*dG*dA*e[5mC]*e[5mC]*e[5mC]*eT*e[5mC]) [compound 416552]	46%
416457 (antisense eG*eG*eA*eT*eG*dA*dT*dG*dA*d[5mC]*d[5mC]*dT*dG*d[5mC]*dG*e[5mC]*e[5mC]*eA*e[5mC]*e[5mC]) [compound 416457]	48%
416519 (antisense eA*eA*eA*eT*eA*dT*dG*dG*dG*dA*d[5mC]*d[5mC]*d[5mC]*dA*dA*eA*eG*eT*eG*eG) [compound 416519]	9%
416506 (antisense e[5mC]*eT*eT*eT*eA*dA*dA*dA*dT*d[5mC]*dA*dG*dT*dT*dT*e[5mC]*eA*e[5mC]*eA*e[5mC]) [compound 416506]	18%
416550 (antisense eT*eG*eG*e[5mC]*eT*dG*dG*d[5mC]*dT*dG*dA*dG*dG*dA*dG*eA*e[5mC]*eA*eA*eT) [compound 416550]	55%
416560 (antisense eT*eA*eA*eA*eA*d[5mC]*dT*dT*dT*dA*dT*dT*dT*dA*d[5mC]*eA*eA*eG*eA*eG) [compound 416560]	0%
416452 (antisense e[5mC]*e[5mC]*eA*eA*e[5mC]*dA*dA*d[5mC]*dA*dG*dG*dA*d[5mC]*d[5mC]*dT*eG*e[5mC]*e[5mC]*eA*eT) [compound 416452]	19%
416426 (antisense eA*eG*e[5mC]*e[5mC]*e[5mC]*dA*dA*dG*d[5mC]*dA*dG*dA*dA*dG*dG*e[5mC]*eA*eG*eA*eG) [compound 416426]	34%
416514 (antisense eG*eT*eA*eT*eT*dT*dT*d[5mC]*dT*dG*dA*dT*dG*dT*dG*eA*eA*eA*eA*e[5mC]) [compound 416514]	8%
416567 (antisense eT*eG*eG*eT*eG*dG*d[5mC]*dA*d[5mC]*d[5mC]*dA*dG*dA*dT*dG*eT*e[5mC]*eT*eG*eA) [compound 416567]	2%
416563 (antisense eG*e[5mC]*e[5mC]*eT*eG*d[5mC]*dA*dT*dT*dT*d[5mC]*d[5mC]*d[5mC]*dA*dT*eT*eG*eG*e[5mC]*eA) [compound 416563]	0%

Same assay, conditions: HepB3 cells; gapmers (5-10-5, 3-14-3, 2-13-5 MOE) targeted to nucleobases 4868 to 4899 of SEQ ID NO: 1

Substance	% Inhibition of human Factor 7 mRNA levels
422213 (antisense eT*e[5mC]*eT*dG*d[5mC]*dA*dG*dG*dA*dG*d[5mC]*dG*dG*d[5mC]*d[5mC]*dT*dA*eA*eA*eT) [compound 422213]	67%
422216 (antisense eA*eG*eT*dT*d[5mC]*dT*dG*d[5mC]*dA*dG*dG*dA*dG*d[5mC]*dG*dG*d[5mC]*e[5mC]*eT*eA) [compound 422216]	68%
422290 (antisense eT*e[5mC]*dT*dG*d[5mC]*dA*dG*dG*dA*dG*d[5mC]*dG*dG*d[5mC]*d[5mC]*eT*eA*eA*eA*eT) [compound 422290]	50%

Same assay, conditions: HepB3 cells; gapmers targeted to nucleobases 11830 to 11869 of SEQ ID NO: 1 (Table 9)

Substance	% Inhibition of human Factor 7 mRNA levels
422172 (antisense eT*eG*eG*d[5mC]*dT*dG*dA*dG*dG*dA*dG*dA*d[5mC]*dA*dA*dT*dG*eG*eT*e[5mC]) [compound 422172]	39%
422245 (antisense eT*eG*dA*dG*dG*dA*dG*dA*d[5mC]*dA*dA*dT*dG*dG*dT*e[5mC]*eA*eG*eG*eG) [compound 422245]	24%
422239 (antisense eG*eA*d[5mC]*dA*dA*dT*dG*dG*dT*d[5mC]*dA*dG*dG*dG*d[5mC]*eT*eG*eG*eT*eT) [compound 422239]	67%
422248 (antisense eG*eG*d[5mC]*dT*dG*dA*dG*dG*dA*dG*dA*d[5mC]*dA*dA*dT*eG*eG*eT*e[5mC]*eA) [compound 422248]	60%
422246 (antisense e[5mC]*eT*dG*dA*dG*dG*dA*dG*dA*d[5mC]*dA*dA*dT*dG*dG*eT*e[5mC]*eA*eG*eG) [compound 422246]	46%
422154 (antisense eT*e[5mC]*eA*dG*dG*dG*d[5mC]*dT*dG*dG*dT*dT*dT*dT*dG*dG*dA*eG*eG*eA) [compound 422154]	31%
422174 (antisense eG*e[5mC]*eT*dG*dG*d[5mC]*dT*dG*dA*dG*dG*dA*dG*dA*d[5mC]*dA*dA*eT*eG*eG) [compound 422174]	55%

Same assay, conditions: HepB3 cells; gapmers targeted to nucleobases 13760 to 13789 of SEQ ID NO: 1 (Table 10)

Substance	% Inhibition of human Factor 7 mRNA levels
422111 (antisense e[5mC]*eA*e[5mC]*e[5mC]*e[5mC]*dG*d[5mC]*d[5mC]*dG*dG*d[5mC]*dT*d[5mC]*dT*dG*e[5mC]*eT*e[5mC]*eA*eT) [compound 422111]	37%
422179 (antisense e[5mC]*eA*e[5mC]*d[5mC]*d[5mC]*dG*d[5mC]*d[5mC]*dG*dG*d[5mC]*dT*d[5mC]*dT*dG*d[5mC]*dT*e[5mC]*eA*eT) [compound 422179]	43%
422110 (antisense eA*e[5mC]*e[5mC]*e[5mC]*eG*d[5mC]*d[5mC]*dG*dG*d[5mC]*dT*d[5mC]*dT*dG*d[5mC]*eT*e[5mC]*eA*eT*e[5mC]) [compound 422110]	53%
422257 (antisense e[5mC]*e[5mC]*dA*d[5mC]*d[5mC]*d[5mC]*dG*d[5mC]*d[5mC]*dG*dG*d[5mC]*dT*d[5mC]*dT*eG*e[5mC]*eT*e[5mC]*eA) [compound 422257]	65%
422175 (antisense e[5mC]*eG*e[5mC]*d[5mC]*dG*dG*d[5mC]*dT*d[5mC]*dT*dG*d[5mC]*dT*d[5mC]*dA*dT*d[5mC]*e[5mC]*e[5mC]*e[5mC]) [compound 422175]	69%
422116 (antisense eT*eG*e[5mC]*eG*e[5mC]*d[5mC]*dA*d[5mC]*d[5mC]*d[5mC]*dG*d[5mC]*d[5mC]*dG*dG*e[5mC]*eT*e[5mC]*eT*eG) [compound 422116]	52%

Same assay, conditions: HepB3 cells; gapmers targeted to nucleobases 14707 to 14732 of SEQ ID NO: 1 (Table 11)

Substance	% Inhibition of human Factor 7 mRNA levels
422278 (antisense eG*e[5mC]*d[5mC]*dT*dG*dA*dG*dG*d[5mC]*d[5mC]*dA*dG*d[5mC]*dA*dG*eA*eT*e[5mC]*eA*e[5mC]) [compound 422278]	64%
